Source: the NIST ThermoML archive (doi:10.1021/je060271a)

Conditions: 323.14 K, Liquid, Vibrating tube method

CCCCCCC(=O)OCC(COC(=O)CCCCCC)(COC(=O)CCCCCC)COC(=O)CCCCCC [pentaerythritol tetraheptanoate]
Conditions | mass density [kg/m3]
13822 kPa | 964.8
13850 kPa | 964.7
13884 kPa | 964.8
13912 kPa | 964.9
13940 kPa | 965
13969 kPa | 964.9
14002 kPa | 964.9
14031 kPa | 964.9
14065 kPa | 964.9
14094 kPa | 964.9
14124 kPa | 965
14159 kPa | 964.9
14217 kPa | 964.9
14254 kPa | 965
14374 kPa | 965
14411 kPa | 965.1
14441 kPa | 965.3
14478 kPa | 965.2
14509 kPa | 965.3
14540 kPa | 965.3
14571 kPa | 965.2
14777 kPa | 965.3
14810 kPa | 965.4
14849 kPa | 965.5
14883 kPa | 965.4
15305 kPa | 965.7
15364 kPa | 965.8
15393 kPa | 965.8
15404 kPa | 965.8
15412 kPa | 965.8
15421 kPa | 965.8
15430 kPa | 965.8
15440 kPa | 965.9
15449 kPa | 965.8
15460 kPa | 965.9
15468 kPa | 966
15477 kPa | 965.9
15488 kPa | 965.8
15497 kPa | 965.8
15506 kPa | 965.9
15514 kPa | 965.8
15525 kPa | 965.8
15534 kPa | 966
15543 kPa | 965.9
15554 kPa | 965.9
15563 kPa | 965.9
15573 kPa | 965.9
15582 kPa | 966
15591 kPa | 965.9
15600 kPa | 966
15611 kPa | 966
15620 kPa | 965.9
15658 kPa | 966.1
15667 kPa | 966
15678 kPa | 966
15687 kPa | 966
15698 kPa | 966.1
15716 kPa | 966.2
15756 kPa | 966.1
15853 kPa | 966.1
15873 kPa | 966.2
15882 kPa | 966.1
15893 kPa | 966.1
15912 kPa | 966.1
15923 kPa | 966
15933 kPa | 966.2
15942 kPa | 966.2
16746 kPa | 966.7
16758 kPa | 966.5
16768 kPa | 966.7
16779 kPa | 966.7
16792 kPa | 966.6
16801 kPa | 966.7
16813 kPa | 966.6
16924 kPa | 966.8
16935 kPa | 966.8
16947 kPa | 966.8
16960 kPa | 966.9
16970 kPa | 966.9
16981 kPa | 966.8
16993 kPa | 966.8
17004 kPa | 966.9
17223 kPa | 966.9
17236 kPa | 967
17329 kPa | 967.1
17342 kPa | 967.1
17353 kPa | 967.1
17364 kPa | 967.1
17378 kPa | 967.1
17401 kPa | 967
17522 kPa | 967
17659 kPa | 967.3
17673 kPa | 967.2
17685 kPa | 967.2
17697 kPa | 967.3
17708 kPa | 967.1
17722 kPa | 967.2
17734 kPa | 967.3
17784 kPa | 967.3
17798 kPa | 967.3
17885 kPa | 967.4
17912 kPa | 967.5
17924 kPa | 967.3
17938 kPa | 967.4
17950 kPa | 967.5
18001 kPa | 967.4
18171 kPa | 967.5
18199 kPa | 967.5
18211 kPa | 967.6
18226 kPa | 967.6
18239 kPa | 967.6
18252 kPa | 967.6
